Assay results: US20220289698A1, “INHIBITORS OF HUMAN ATGL” (Karl-Franzens-Universität Graz, priority 2019, published 2022)
Like-named read-outs stand apart in the source and are kept apart here.

Columns and labels:
HepG2 cells = experiment: Toxicity screening (LDH) in HepG2 cells; format: cell-based, human; settings: 24 h treatment, LDH release
Experimental: HepG2 cells were seeded in 96 well plates and at 50% confluency treated with DMSO (0.5% final conc.) or ATGL Inhibitors for 24 h in DMEM+P/S+3% heat inactivated FCS (3 h at 62° C.). Subsequently, LDH activity of 50 μl medium was determined via the Roche LDH Kit. Samples measured in triplicates.

Stability in human serum = format: in vitro ADME; settings: 37° C., HPLC MS
Experimental: Inhibitors were incubated in human serum for 0 or 3 h at 37° C. and subsequently extracted with the MTBE method and analyzed via HPLC MS. Samples measured in triplicates.

human ATGL [1] = target: T1, human ATGL (Homo sapiens, UniProt Q96AD5); experiment: TG hydrolase activity, Expi cell lysates expressing human ATGL + CGI-58, radiolabelled triolein; format: biochemical
T1 construct: made in house; host or cells: Expi cells (lysate, not purified)
T1 sequence (Q96AD5 1-504): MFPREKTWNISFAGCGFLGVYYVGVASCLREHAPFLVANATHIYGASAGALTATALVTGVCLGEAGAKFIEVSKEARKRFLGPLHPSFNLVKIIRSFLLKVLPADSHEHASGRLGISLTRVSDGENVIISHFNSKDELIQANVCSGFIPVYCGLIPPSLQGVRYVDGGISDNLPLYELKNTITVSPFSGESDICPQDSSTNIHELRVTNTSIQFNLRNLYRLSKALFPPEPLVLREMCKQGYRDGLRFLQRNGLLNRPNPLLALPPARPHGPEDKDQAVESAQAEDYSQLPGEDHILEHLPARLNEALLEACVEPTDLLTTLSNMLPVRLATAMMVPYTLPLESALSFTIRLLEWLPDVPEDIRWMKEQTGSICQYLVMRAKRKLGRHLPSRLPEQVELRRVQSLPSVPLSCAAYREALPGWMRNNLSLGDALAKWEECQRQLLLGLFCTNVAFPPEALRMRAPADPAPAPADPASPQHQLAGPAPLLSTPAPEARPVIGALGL
Outline: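 Lysates of Expi cells expressing ATGL, supplemented with purified CGI-58 and inhibitor in DMSO, incubated 1 h at 37 °C with emulsified radiolabelled triolein (330 μM) in potassium phosphate pH 7.0 with 5% FA-free BSA. Released FA counted by liquid scintillation after phase extraction; IC50 versus DMSO control, duplicates.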

[2] = test system: differentiated hMADS adipocytes; experiment: Isoproterenol-stimulated lipolysis in differentiated hMADS adipocytes; format: cell-based; settings: Homo sapiens, Adipocyte, 2 h pretreatment, 1 μM isoproterenol 1 h
Experimental: Human differentiated hMADS adipocytes were pretreated with DMSO or ATGL inhibitors for 2 h. Subsequently, lipolysis was stimulated with 1 μM Isoproterenol for 1 h and fatty acid release was determined from media via NEFA Reagent (Wako Diagnostics). Samples were measured in triplicates.
Human differentiated hMADS adipocytes were pretreated with DMSO or ATGL inhibitors for 2 h. Subsequently, lipolysis was stimulated with 1 μM Isoproterenol for 1 h and glycerol release was determined from media via Free glycerol reagent (Sigma Aldrich). Samples were measured in triplicates.

human ATGL [3] = target: T1, human ATGL; experiment: Ki determination, human ATGL lysates with increasing substrate concentrations; format: biochemical; settings: non-linear regression
Experimental: For determination of Ki values, lysates from Expi cells overexpressing human ATGL were incubated with recombinant purified ATGL co-activator CGI-58 and ATGL inhibitors at a single concentration dependent on the previously determined IC50. Increasing concentrations of substrate containing radiolabeled triolein were added and liberated FA were extracted and quantified by liquid scintillation. Inhibitors were dissolved in DMSO which was used as control. Ki was determined via non-linear regression analysis. Samples were measured in triplicates.

murine ATGL = target: T2, murine ATGL (Mus musculus, UniProt Q8BJ56); experiment: TG hydrolase activity, Expi lysates expressing mouse ATGL + CGI-58, radiolabelled triolein; format: biochemical
T2 construct: made in house; host or cells: Expi cells (lysate)
T2 sequence (Q8BJ56 1-486): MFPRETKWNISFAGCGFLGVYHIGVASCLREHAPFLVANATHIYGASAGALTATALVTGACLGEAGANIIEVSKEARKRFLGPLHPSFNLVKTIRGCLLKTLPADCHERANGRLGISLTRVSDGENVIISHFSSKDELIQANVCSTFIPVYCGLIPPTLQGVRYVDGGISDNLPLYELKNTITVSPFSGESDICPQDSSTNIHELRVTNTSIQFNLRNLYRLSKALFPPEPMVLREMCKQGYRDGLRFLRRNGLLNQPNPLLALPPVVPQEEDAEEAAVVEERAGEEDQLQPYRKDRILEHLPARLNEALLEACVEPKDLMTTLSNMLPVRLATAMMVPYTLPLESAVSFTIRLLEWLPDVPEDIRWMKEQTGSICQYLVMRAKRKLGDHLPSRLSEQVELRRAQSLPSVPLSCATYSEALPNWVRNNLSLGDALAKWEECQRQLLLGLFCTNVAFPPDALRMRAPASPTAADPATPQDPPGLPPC
Outline: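 Lysates of Expi cells overexpressing mouse ATGL, with added recombinant CGI-58, were incubated with inhibitor at 50 μM. Substrate was emulsified radiolabelled triolein with PC/PI in 100 mM potassium phosphate pH 7.0 and 5% FA-free BSA, 1 h at 37° C. Released FA were extracted and counted by scintillation; triplicates, DMSO control.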

[4] = test system: differentiated SGBS adipocytes; experiment: Isoproterenol-stimulated lipolysis in differentiated SGBS adipocytes; format: cell-based; settings: Homo sapiens, 2 h pretreatment, 1 μM isoproterenol 1 h
Experimental: Human differentiated SGBS adipocytes were pretreated with DMSO or ATGL inhibitors for 2 h. Subsequently, lipolysis was stimulated with 1 μM Isoproterenol for 1 h and fatty acid release was determined from media via NEFA Reagent (Wako Diagnostics). Samples were measured in triplicates.
Human differentiated SGBS adipocytes were pretreated with DMSO or ATGL inhibitors for 2 h. Subsequently, lipolysis was stimulated with 1 μM Isoproterenol for 1 h and glycerol release was determined from media via Free glycerol reagent (Sigma Aldrich). Samples were measured in triplicates.

hPNPLA9 = target: T3, hPNPLA9 (Homo sapiens, UniProt O60733); experiment: hPNPLA9 off-target inhibition; format: biochemical; settings: read-out: hPNPLA9 off-target inhibition [% inhibition at 100 μM]
T3 construct: made in house; host or cells: Expi cells (lysate)
T3 sequence (O60733 1-806): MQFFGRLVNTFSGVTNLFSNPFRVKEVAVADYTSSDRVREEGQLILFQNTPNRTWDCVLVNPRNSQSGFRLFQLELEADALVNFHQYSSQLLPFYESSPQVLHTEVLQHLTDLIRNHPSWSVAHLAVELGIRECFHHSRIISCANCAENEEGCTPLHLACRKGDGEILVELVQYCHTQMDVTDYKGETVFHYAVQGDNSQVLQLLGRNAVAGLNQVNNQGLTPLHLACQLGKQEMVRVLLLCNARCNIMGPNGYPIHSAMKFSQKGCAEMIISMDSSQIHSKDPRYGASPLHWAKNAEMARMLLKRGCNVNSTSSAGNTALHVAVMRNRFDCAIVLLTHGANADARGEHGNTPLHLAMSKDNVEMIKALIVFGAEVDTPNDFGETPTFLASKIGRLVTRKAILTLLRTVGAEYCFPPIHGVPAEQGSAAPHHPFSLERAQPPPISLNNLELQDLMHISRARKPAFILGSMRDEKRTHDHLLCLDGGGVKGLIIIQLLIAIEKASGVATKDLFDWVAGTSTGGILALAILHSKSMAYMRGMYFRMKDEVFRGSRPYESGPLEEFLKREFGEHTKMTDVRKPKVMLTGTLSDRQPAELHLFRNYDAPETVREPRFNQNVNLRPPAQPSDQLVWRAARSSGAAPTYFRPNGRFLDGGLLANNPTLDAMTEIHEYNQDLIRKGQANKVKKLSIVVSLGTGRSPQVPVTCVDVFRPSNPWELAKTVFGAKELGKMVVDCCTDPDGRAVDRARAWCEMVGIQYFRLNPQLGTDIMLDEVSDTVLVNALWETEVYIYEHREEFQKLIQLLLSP
Experimental: Expi lysates expressing hPNPLA9 were treated with 100 μM Inhibitors and incubated with 1 mM C8 monoacylglycerol substrate (containing 5 mM CHAPS, 50 mM NaPh buffer ph7.4, 0.15 M NaCl) for 40 min. Glycerol release was determined via Free glycerol reagent (Sigma Aldrich). Samples measured in triplicates, […]

[5] = Example 237, read-out: Inhibition of human ATGL − IC50
[6] = fatty acid release, read-out: IC50 hMADS FA release
[7] = 50 μM compound, Example 237, read-out: Inhibition of murine ATGL at 50 μM − mean [%]
[8] = fatty acid release, read-out: IC50 SGBS FA release
[9] = glycerol release, read-out: IC50 SGBS glycerol release
[10] = 50 μM, overview table, read-out: mouse ATGL inhibition [% inhibition at 50 μM]
[11] = glycerol release, read-out: IC50 hMADS glycerol release

Row | Structure (SMILES) | Tox HepG2 (LDH) seen from (HepG2 cells) [µM] | Stability in human serum [% rest after 3 h incubation] (Stability in human serum) [%] | IC50 (human ATGL [1]; [5]) [nM] | IC50 [2, 6] [nM] | Ki (human ATGL [3]) [nM] | melting point [°C] | inhibition at 50 µM (murine ATGL; [7]) [%] | IC50 [4, 8] [nM] | IC50 [4, 9] [nM] | inhibition at 50 µM (murine ATGL; [10]) [%] | IC50 (human ATGL [1]; values of text and figure legend, read-out: IC50 on human ATGL (hATGL)) [nM] | IC50 [2, 11] [nM] | inhibition at 100 µM (hPNPLA9) [%]
1 | COCc1ccc(-c2cc(OC)cc(C(=O)OC(C)C)n2)cc1 [Example 61] | 50 | 75 | 1000 | 2000 | 420 | – | – | – | – | – | – | – | –
2 | CCCCCCCOc1ccc(-c2cccc(C(=O)OC(C)C)n2)cc1 [Example 86] | – | 80 | 1500 | 1000 | 470 | 64 to 66 | 0 | – | – | – | – | – | –
3 | CCCCCCc1ccc(-c2cccc(C(=O)OC(C)C)n2)cc1 [Example 68] | – | 80 | 1500 | 1000 | 270 | 34 to 35 | 0 | – | – | – | – | – | –
4 | CCCOc1ccc(-c2nc(C(=O)OCC)cs2)cc1 [Example 105, Ethyl 2-(4-propoxyphenyl)thiazole-4-carboxylate] | – | – | 3000 | – | – | – | 12.2 | 3000 | 3000 | – | – | – | –
5 | CCOC(=O)c1csc(-c2ccc(OCC)cc2)n1 [Example 101, Ethyl 2-(4-ethoxyphenyl)thiazole-4-carboxylate] | – | 25 | – | – | 2500 | – | 23.6 | 3000 | 3000 | 30 | 2500 | – | –
6 | CC(C)OC(=O)c1cccc(-c2ccc(C(F)(F)F)cc2)n1 [Example 41] | – | 75 | 3000 | – | 2500 | 98 to 99 | 28.2 | – | – | – | – | – | –
7 | C#CC(C)OC(=O)c1csc(-c2ccc(OCC)cc2)n1 (stereo not drawn) [Example 157, But-3-yn-2-yl 2-(4-ethoxyphenyl)thiazole-4-carboxylate] | – | – | 900 | 2500 | 210 | – | – | – | – | – | – | 5000 | –
8 | C=C(C)COC(=O)c1csc(-c2ccc(OCC)cc2)n1 [Example 120, 2-Methylallyl 2-(4-ethoxyphenyl)thiazole-4-carboxylate] | – | 5 | 4000 | – | 1200 | – | 40.5 | – | – | 40 | – | – | –
9 | CCCc1ccc(-c2cc(OC)cc(C(=O)OC(C)C)n2)cc1 [Example 53] | – | 80 | 1500 | – | 550 | – | 0 | – | – | – | – | 80000 | –
10 | C=CC(C)OC(=O)c1csc(-c2ccc(OCC)cc2)n1 (stereo not drawn) [Example 148, But-3-en-2-yl 2-(4-ethoxyphenyl)thiazole-4-carboxylate] | – | – | 2000 | – | – | – | – | 2000 | 3000 | 30 | – | – | –
11 | CCOc1ccc(-c2cccc(C(=O)OC(C)C)n2)cc1 [Example 6] | – | – | 3000 | – | – | – | 0 | 2000 | – | – | – | – | 0
12 | CCCc1ccc(-c2cccc(C(=O)OC(C)C)n2)cc1 [Example 43] | – | 80 | 2000 | 3000 | 470 | 104 to 107 | 9.8 | – | – | – | – | – | –
13 | CCCCCCOc1ccc(-c2cccc(C(=O)OC(C)C)n2)cc1 [Example 69] | – | 80 | 1000 | – | 830 | 68 to 70 | – | – | – | – | – | 80000 | –
